This passage reports IC50, EC50 and AC50 results from ChEMBL document CHEMBL1201862, “PubChem BioAssay data set” (2004).

The target of one assay is T1, Coagulation factor XII (Homo sapiens, UniProt P00748).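 Also: activated factor XIIa alpha cleaving a fluorogenic AMC peptide substrate; inhibitor potency from loss of enzyme activity.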
T1 sequence (P00748 whole entry): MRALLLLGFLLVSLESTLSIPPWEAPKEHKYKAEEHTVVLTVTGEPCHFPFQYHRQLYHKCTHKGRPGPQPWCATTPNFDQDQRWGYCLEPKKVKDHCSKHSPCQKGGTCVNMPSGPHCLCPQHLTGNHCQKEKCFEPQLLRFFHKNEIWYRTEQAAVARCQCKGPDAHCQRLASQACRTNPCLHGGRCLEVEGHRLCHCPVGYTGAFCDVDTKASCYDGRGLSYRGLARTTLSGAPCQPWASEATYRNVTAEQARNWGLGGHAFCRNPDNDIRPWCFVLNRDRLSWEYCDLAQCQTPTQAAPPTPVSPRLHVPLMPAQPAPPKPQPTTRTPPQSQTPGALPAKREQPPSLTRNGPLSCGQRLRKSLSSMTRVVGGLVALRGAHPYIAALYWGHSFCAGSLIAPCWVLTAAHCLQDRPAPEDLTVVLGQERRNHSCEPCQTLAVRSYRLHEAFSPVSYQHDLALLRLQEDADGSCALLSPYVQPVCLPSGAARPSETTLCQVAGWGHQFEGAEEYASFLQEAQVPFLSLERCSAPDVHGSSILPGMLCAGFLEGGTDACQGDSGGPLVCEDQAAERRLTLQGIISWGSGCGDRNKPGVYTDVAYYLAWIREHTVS
Type of assay: functional.

A short description of assay [1]: cytotoxicity in HEK-293T cells, dose response, cytotoxicity control for TCR NF-kB inhibitor project, luminescence, T-cell screen hits (AID 489026).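 Also: cells exposed to compound about 14 hours before the viability readout.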 The assay is classed as functional, cell-based.
The nature of assay [2]: inhibitors of firefly luciferase expression or activity, dose response, H4 neuroglioma cells, luminescence (AID 1990). Type of assay: functional, cell-based.
Assay [3] in a line: Luminescence Cell-Based Dose Response HTS to Identify Inhibitors of 5'UTR Stem-Loop Driven Prion Protein mRNA Translation in H4 Neuroglioblastoma Cells. [Related pubchem assays: 1827 (Project Summary), 1813 (Primary HTS)]. Type of assay: functional.
The nature of assay [4]: inhibitors of SNCA 5'UTR-driven reporter translation, confirmation, H4 neuroglioma cells, luminescence (AID 1988). Type of assay: functional, cell-based.
Assay [5] addresses T2, Microphthalmia-associated transcription factor (Homo sapiens, UniProt O75030).
T2 sequence (O75030 whole entry): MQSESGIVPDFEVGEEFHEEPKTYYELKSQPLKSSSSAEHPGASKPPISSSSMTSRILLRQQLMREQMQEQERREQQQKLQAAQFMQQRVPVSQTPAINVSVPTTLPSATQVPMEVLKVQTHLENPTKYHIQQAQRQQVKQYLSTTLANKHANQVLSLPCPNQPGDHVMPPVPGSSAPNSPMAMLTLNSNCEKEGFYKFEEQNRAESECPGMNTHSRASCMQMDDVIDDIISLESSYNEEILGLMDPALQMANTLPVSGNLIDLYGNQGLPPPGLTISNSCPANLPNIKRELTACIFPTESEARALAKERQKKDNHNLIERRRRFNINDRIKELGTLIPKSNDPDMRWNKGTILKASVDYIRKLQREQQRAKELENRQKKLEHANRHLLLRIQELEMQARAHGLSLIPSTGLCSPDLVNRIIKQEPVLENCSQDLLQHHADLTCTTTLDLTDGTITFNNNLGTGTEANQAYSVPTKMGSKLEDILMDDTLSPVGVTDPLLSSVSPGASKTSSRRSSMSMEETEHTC
The experiment in a line: TRPM1 promoter luciferase signal decrease, dose response, MITF inhibitor project, cell-based, SK-MEL-5, cherry-picked, set 3 (AID 493073).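 Also: SK-MEL-5 melanoma cells with luciferase driven by the MITF target TRPM1 promoter.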 The assay is classed as functional.

Assay [6] addresses T3, Fatty acid synthase (Homo sapiens, UniProt P49327). The experiment in a line: FAS thioesterase domain inhibitors, dose response, biochemical, endpoint fluorescence intensity, uHTS hits (AID 624327).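 Also: fluorescence from hydrolysis of an O-methyl fluorescein acyl ester substrate by the enzyme.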 The assay is classed as functional.
The target in assay [7] is T3, Fatty acid synthase. Briefly: FAS thioesterase domain inhibitors, dose response, biochemical, kinetic fluorescence intensity (AID 624326).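 Also: rate of fluorescence rise from hydrolysis of a fluorogenic O-methyl fluorescein ester substrate.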 The assay is classed as functional.
A short description of assay [8]: LGR2 antagonists, dose response, cell-based, HEK293, CRE-luciferase reporter, cherry pick, set 2 (AID 743343).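 Also: transfected cells were stimulated with diluted bursicon conditioned medium after compound addition.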 Type of assay: functional.
Assay [9] in a line: MC4R antagonists, dose response, counter-screen for LGR2 antagonist project, cell-based, plate reader, cherry pick (AID 743444).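 Also: transfected HEK 293 cells stimulated with alpha-MSH peptide; potency of inhibitors of the alpha-MSH evoked signal.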 Type of assay: functional. (A counterscreen serves to expose hits that act by an unwanted route or on another target.)

Calls of active or inactive are those of the source. Bounds are passed on as bounds.

T3 sequence (P49327 whole entry, the tested form may be a part): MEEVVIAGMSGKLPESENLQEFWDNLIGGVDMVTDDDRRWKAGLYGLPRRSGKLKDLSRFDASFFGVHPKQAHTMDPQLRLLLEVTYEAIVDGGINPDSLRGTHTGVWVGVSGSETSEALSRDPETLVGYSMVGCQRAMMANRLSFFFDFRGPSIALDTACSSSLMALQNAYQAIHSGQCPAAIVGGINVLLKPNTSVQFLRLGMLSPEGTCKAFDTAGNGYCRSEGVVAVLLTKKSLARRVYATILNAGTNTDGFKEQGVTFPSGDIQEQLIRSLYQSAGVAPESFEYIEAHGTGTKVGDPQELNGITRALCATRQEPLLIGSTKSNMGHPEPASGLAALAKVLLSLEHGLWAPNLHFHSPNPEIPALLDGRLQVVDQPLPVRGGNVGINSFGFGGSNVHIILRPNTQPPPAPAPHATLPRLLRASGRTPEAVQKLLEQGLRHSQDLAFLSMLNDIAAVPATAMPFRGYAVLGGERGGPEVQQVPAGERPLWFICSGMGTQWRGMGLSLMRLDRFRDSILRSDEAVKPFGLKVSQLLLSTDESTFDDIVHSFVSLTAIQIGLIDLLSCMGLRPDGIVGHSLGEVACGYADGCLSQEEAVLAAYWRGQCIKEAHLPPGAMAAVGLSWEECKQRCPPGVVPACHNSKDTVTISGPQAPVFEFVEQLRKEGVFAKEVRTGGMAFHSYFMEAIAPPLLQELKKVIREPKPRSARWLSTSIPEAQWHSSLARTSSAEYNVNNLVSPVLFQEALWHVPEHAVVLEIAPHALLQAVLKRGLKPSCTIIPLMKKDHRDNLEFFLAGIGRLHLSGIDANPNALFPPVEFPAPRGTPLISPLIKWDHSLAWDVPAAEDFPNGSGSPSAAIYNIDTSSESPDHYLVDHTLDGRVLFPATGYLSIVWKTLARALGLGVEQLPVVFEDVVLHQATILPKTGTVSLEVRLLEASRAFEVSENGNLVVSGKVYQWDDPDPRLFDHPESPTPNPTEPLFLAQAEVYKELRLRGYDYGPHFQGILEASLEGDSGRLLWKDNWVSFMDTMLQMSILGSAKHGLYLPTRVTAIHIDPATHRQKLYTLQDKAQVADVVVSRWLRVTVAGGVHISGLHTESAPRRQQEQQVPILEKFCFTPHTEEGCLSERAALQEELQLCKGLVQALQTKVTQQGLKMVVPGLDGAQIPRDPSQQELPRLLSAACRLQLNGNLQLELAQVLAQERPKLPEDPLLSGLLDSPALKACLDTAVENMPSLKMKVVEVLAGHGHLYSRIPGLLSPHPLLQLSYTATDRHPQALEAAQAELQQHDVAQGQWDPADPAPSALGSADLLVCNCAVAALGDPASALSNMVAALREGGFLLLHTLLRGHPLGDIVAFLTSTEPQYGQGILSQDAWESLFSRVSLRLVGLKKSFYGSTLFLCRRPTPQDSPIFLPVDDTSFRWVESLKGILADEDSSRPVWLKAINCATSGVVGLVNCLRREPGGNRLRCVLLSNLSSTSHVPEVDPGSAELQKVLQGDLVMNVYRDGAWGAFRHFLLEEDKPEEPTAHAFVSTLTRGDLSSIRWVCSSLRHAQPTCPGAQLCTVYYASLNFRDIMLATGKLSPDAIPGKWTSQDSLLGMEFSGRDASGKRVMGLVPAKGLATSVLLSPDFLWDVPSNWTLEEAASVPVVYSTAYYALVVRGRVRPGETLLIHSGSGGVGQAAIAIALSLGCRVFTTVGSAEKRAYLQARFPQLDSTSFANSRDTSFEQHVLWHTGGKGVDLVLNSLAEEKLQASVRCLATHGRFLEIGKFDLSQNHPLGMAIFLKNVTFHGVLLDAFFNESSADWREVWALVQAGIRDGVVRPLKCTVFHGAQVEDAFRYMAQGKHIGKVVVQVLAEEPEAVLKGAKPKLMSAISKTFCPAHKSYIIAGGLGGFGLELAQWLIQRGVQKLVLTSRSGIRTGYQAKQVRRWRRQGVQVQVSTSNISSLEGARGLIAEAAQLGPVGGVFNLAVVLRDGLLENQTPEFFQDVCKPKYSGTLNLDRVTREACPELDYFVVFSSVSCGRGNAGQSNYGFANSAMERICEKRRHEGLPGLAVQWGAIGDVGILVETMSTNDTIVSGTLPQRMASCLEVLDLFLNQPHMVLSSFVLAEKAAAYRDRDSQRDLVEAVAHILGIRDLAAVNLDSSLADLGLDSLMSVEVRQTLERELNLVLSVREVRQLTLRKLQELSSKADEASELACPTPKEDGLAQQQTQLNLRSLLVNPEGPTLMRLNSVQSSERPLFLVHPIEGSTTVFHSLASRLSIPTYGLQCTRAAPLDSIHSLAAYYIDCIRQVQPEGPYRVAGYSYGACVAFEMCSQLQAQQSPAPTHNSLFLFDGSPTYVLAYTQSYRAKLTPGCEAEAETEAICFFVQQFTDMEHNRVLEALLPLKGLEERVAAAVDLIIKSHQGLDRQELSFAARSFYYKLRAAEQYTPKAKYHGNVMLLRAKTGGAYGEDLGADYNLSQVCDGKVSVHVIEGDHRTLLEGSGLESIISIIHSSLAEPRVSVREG

For orientation: IC50 means the midpoint of a concentration-inhibition curve. Regarding `COc1ccc(C(=O)CSc2nc3ccc[nH]c-3n2)cc1OC`, the IC50 at Coagulation factor XII was > 50 µM (inactive).
Regarding `CCc1ccc(/C=N/NC(=O)c2cc(C3CC3)nc3ccccc23)s1`, the IC50 in assay [1] is > 80 µM (inactive).
A word on the EC50: it is the concentration that produces a half-maximal response. As a reminder, the AC50 is the midpoint of the concentration-response curve, whichever way the signal moves. Take `Cc1cc(C(=O)CN2C(=O)c3ccccc3S2(=O)=O)c(C)n1-c1ccccc1`: the EC50 was 7.71 µM (active) in assay [2], 9.5 µM (active) in [3] and 5.88 µM (active) in assay [4]. For the same molecule, the concentration at half-maximal activity (AC50) in [5] is 3.45 µM (active).
In the case of `Cc1nonc1OC(C)CNCCNc1ccc([N+](=O)[O-])cc1` (stereo unspecified), the IC50 on Coagulation factor XII was > 50 µM (inactive).
In the case of `CCOc1ccc(-c2[nH]ncc2-c2ccc(OC)c(OC)c2)c(O)c1`, the IC50 in [1] was 75.8 µM (inactive).
With `O=C(C1CC(c2ccc(Cl)c(Cl)c2)=NO1)N1CCC2(CC1)OCCO2` (stereo unspecified), the IC50 is > 50 µM (inactive) at Coagulation factor XII, 7.22 µM (active) at Fatty acid synthase [6] and 5.55 µM (active) at Fatty acid synthase [7].
`COc1ccc(NC(=O)Cn2nnc(-c3ccccc3NS(=O)(=O)c3ccc(OC)cc3)n2)cc1`: the IC50 in [1] was > 80 µM (inactive).
With `O=C(NC1CCCc2ccccc21)C1CCN(S(=O)(=O)c2ccccc2F)CC1` (stereo unspecified), on Coagulation factor XII, the IC50 is > 50 µM (inactive).
Regarding `O=C(O)c1ccc(Nc2nc3c(s2)CCCC3)cc1`, the AC50 was 6.49 µM (active) in [5], 4.2 µM (active) in assay [8] and 4.75 µM (active) in [9].
The matching figures for `CCOc1ccc(C(=O)Nc2cccc(C(=O)O)c2C)cc1Cl`: 8.56 µM (active), 8.96 µM (active) and 10.1 µM (active).
Take `Cc1cc(NC(=O)COC(=O)C2CCN(S(=O)(=O)c3c(Cl)cccc3Cl)CC2)no1`: at Coagulation factor XII, the IC50 is > 50 µM (inactive).
Regarding `CCOc1cc(NC(=O)CCl)c(OCC)cc1NC(=O)CCl`, in [5], the AC50 was 5.51 µM (active).
